According to patent US20200032249A1, “LABELING, ISOLATION, & ANALYSIS OF RNA FROM RARE CELL POPULATIONS” (priority 2017, published 2020):

Experiments:
293T cells = experiment: anti-BrdU immunofluorescent staining of 293T cells treated with 5-FC or 5-FU; type: cell-based, human; settings: 250 μM, 24 h
Experimental: S. cerevisiae CD was exogenously expressed in human embryonic kidney 293T cells, and the cells were treated with 250 μM fluorocytosine (5-FC). This system is predicted to generate intracellular fluorouracil (5-FU), which is then incorporated into newly synthesized RNAs (FIG. 1a, b). Antibodies against bromodeoxyuridine (BrdU) can recognize BrdU and other halogenated uridines incorporated into nucleic acids (8).
Human embryonic kidney transformed with […] (293T) and human breast cancer MDA-MB-231 (MDA231) cells were cultured in DMEM High Glucose medium (Wheaton) supplemented with 10% Fetal Bovine Serum (Clontech, Catalog number 631106) supplemented with 2 mM L-Glutamine. All cell lines have been routinely tested for mycoplasma contamination. For the induction of CD or CD and UPRT, cells were treated with 1 μg/ml doxycycline for 24 h. For Fluorouracil tagging, cells were treated with 250 μM of 5-FC or 5-FU unless indicated. Where indicated, 125 μM thymine was added together with 5-FC. For the formation of stress granules, cells were treated with 500 μM Sodium Arsenite (Santa Cruz Biotechnologies, Catalog number SC-301816).
Cells were fixed with 4% paraformaldehyde for 10 min, permeabilized with 0.2% TritonX-100 for 10 min, blocked with 5% BSA for one hour at room temperature, prior to incubation with primary antibodies at 4° C. overnight, and secondary antibodies (Thermo Fisher anti-chicken antibody, Catalog number A-11039, Thermo Fisher anti-rat antibody, Catalog number A-11006, Abcam anti-rat antibody, Catalog number ab150117) incubated for 1 h at room temperature. Mouse lungs were fixed in 4% paraformaldehyde overnight at 4° C., embedded in paraffin and sectioned. The lung sections were deparaffinized and stained with hematolxylin/eosin or immunostained using standard protocols. Automated image analysis was performed using the FIJI software package.

[1] = system: MDA231 cells expressing CD/UPRT in mouse lungs; experiment: signal-to-noise ratio of Flura-tagging and TU-tagging in vivo, lung colonization xenograft, RT-PCR; settings: 250 mg/kg, 12 h post injection
Experimental: (§1) FIG. 3 a-g. Flura-tagging of mRNA in vivo. FIG. 3a—Schematic diagram of lung colonization xenograft assay used for evaluation of Flura-tagging/Flura-seq. Athymic mice were injected through the tail vein with 50,000 MDA231 cells expressing CD/UPRT and GFP-luciferase. Upon the development of detectable bioluminescent lung metastases (4 weeks), mice were treated with doxycycline to induce CD/UPRT expression and injected with 5-FC. Lungs were harvested, and Flura-tagged mRNAs were immunopurified. FIG. 3b—Comparison of signal-to-noise ratio of Flura-tagging and TU-tagging in vivo. Mice were injected with either 5-FC or TU, the Flura-tagged or TU-tagged mRNAs were purified 12 h post injection, and the relative fold enrichment of representative human housekeeping genes relative to representative murine housekeeping genes (mHPRT1, mLDH1, mPGK1 and mGAPDH), normalized to their corresponding unpurified inputs, were measured by RT-PCR (n=5, ±S.E.). FIG. 3c—Quantification of the number of human cells in the mouse lungs used for Flura-tagging. Half of the mouse lungs used for Flura-tagging in FIG. 3b was dissociated into single cells, and the number of RFP+ cells was quantified using flow cytometry. The total number of MDA231 cells per lung was estimated based on an assumption of 1.5×10^8 cells per mouse lung (20) (n=5). […] RNA reads were aligned to a hybrid genome containing the human and mouse genomes. […]

[2] = system: MDA231 cells expressing CD/UPRT in mouse lungs; experiment: Flura-seq of lung micrometastases, reads aligned to hybrid human-mouse genome; type: in vivo
Experimental: as §1

Q: `Nc1nc(=O)[nH]cc1F` [5-FC, 5-fluorocytosine] was tested. Which “immunostaining with anti-BrdU antibody” value (293T cells; 293T cells expressing CD) did it give?
A: stained by the antibody

Q: And the “immunostaining with anti-BrdU antibody” value (293T cells; untransfected control 293T cells)?
A: did not

Q: What about the “enrichment of human mRNAs compared to mouse mRNAs” value [1] of the same compound?
A: over 1000 fold

Q: What about the “aligned reads mapped to human genome” value ([2]; mice treated for 4 h) of the same compound?
A: approximately 53%

Q: What about the “aligned reads mapped to human genome” value ([2]; mice treated for 12 h) of the same compound?
A: 74%
